Measurements: patent US7875631B2, “Tetrahydroisoquinoline-and tetrahydrobenzazepine derivatives as igf-1 r inhibitors” (Analytecon S.A., priority 2004, dated 2011)
Each block holds one molecule with its values, some of them ahead of it.

Key:
Jurkat cells = assay: Cell death by apoptosis, Annexin V staining, Jurkat; type: cell-based, human; details: for percentage of Annexin-V positive cells: Jurkat, 500 ng/ml
Experimental: (§1) Jurkat and SK-MEL 28 cells were incubated with the compound (I) from example 3 for 6, 24 and 48 hours, after which the percentage of apoptotic cells were determined by Annexin V staining.
(§2) The numbers depicted in the Table represent the percentage of Annexin-V positive cells.

SK-MEL 28 cells = assay: Cell death by apoptosis, Annexin V staining, SK-MEL 28; type: cell-based, human; details: 500 ng/ml
Experimental: as §1, §2

SK-Mel-28 cells = assay: Interaction with cell division, mitotic index; type: cell-based, human; details: four hours (vehicle 1.7)
Experimental: The mitotic index was determined after incubation of SK-Mel-28 cells with vehicle, the compound (I) of example 3 and nocodazole for four hours [essentially as described by C. L. Rieder et al.: Current Biology 10(2000) 1067-1070].

insulin receptor (IR) = biological target: T1, insulin receptor (IR) (Homo sapiens, UniProt P06213); assay: Inhibition of phosphorylation of insulin receptor (IR) in SK-MEL-28; type: cell-based; details: 1 microgram/ml, 2 hours
T1 construct: endogenous in cells; host or cells: SK-MEL-28
Experimental: SK-MEL-28 cells (density 60000/cm^2) were grown in 100 mm diameter dishes containing 10 ml RPMI 1640 supplemented with 10% fetal bovine serum (FBS) for 24 hours. After 24 hours fresh medium supplemented with 10% FBS was added together with or without 1 microgram/ml of compound 33. The dishes were incubated at 37° C. for 2 hours, after which the cells were lyzed and subjected to immunoprecipitation using 2 microliter of an anti-IR monoclonal antibody (18-44, ABCAM) and 20 microliter of agarose-conjugated protein G. Antibody-antigen complexes were allowed to form for 4 hours at 4° C. and after that collected by centrifugation at 4° C. for 1 minute at 5000 rpm. Immunoprecipitated complexes were separated by electrophoresis on an 8% polyacrylamide gel and electroblotted onto a nitrocellulose membrane (Amersham Bioscience). The efficiency of the immunoprecipitation was determined by using a polyclonal antibody against the beta-subunit of the insulin receptor (C-19; Santa Cruz Biotech.). Detection of the tyrosine phosphorylation of the insulin receptor was performed by incubation of the nitrocellulose membranes with an anti-phosphotyrosine antibody (4G10, Upstate Biotechnology Ltd., UK). […]

IGF-1R = biological target: T2, IGF-1R (Homo sapiens, UniProt P08069); assay: Inhibition of phosphorylation of IGF-1R in SK-MEL-28; type: cell-based; details: compound 1000 ng/ml for 2 hours, IGF-1 20 ng/ml for 5 minutes; IGF-1 alone = 100
T2 construct: endogenous in cells; host or cells: SK-MEL-28
Experimental: IGF-1R: Assay without treatment with compounds (I). (Essentially as described by M. Rubini et al. Exp. Cell Res. 230(1997) 284-292).
SK-MEL-28 cells (density 60000/cm^2; 100 mm diameter dish containing 10 ml RPMI 1640) were starved for 24 hours at 37° C. and thereafter treated for 5 minutes at 37° C. with IGF-1 (200 ng, Sigma). Untreated cells served as control. The cells were lyzed and subjected to immunoprecipitation using a specific antibody against IGF-1R (alfa-IR3, Oncogene Science). Immunoprecipitates were separated by polyacrylamide gel electrophoresis and transferred to nitrocellulose membranes (Amersham Bioscience). The immunoprecipitated IGF-1 receptor was located on the nitrocellulose membrane using an antibody against the alfa-subunit of the IGF-1R (N-20:sc-712, Santa Cruz Biotech.). Detection of the tyrosine phosphorylation of the IGF-1 receptor was performed by incubation of the nitrocellulose membranes with an anti-phosphotyrosine antibody (4G10, Upstate Biotechnology Ltd., UK). To reveal the anti-IGF-1R rabbit polyclonal antibody and the anti-phosphotyrosine mouse monoclonal antibody, the membranes were incubated with anti-rabbit IgG and anti-mouse IgG antibodies coupled to HRP, respectively, and visualized by the use of an enhanced chemiluminescence (ECL) detection system (Pierce). […]

T1 sequence (P06213 28-1382): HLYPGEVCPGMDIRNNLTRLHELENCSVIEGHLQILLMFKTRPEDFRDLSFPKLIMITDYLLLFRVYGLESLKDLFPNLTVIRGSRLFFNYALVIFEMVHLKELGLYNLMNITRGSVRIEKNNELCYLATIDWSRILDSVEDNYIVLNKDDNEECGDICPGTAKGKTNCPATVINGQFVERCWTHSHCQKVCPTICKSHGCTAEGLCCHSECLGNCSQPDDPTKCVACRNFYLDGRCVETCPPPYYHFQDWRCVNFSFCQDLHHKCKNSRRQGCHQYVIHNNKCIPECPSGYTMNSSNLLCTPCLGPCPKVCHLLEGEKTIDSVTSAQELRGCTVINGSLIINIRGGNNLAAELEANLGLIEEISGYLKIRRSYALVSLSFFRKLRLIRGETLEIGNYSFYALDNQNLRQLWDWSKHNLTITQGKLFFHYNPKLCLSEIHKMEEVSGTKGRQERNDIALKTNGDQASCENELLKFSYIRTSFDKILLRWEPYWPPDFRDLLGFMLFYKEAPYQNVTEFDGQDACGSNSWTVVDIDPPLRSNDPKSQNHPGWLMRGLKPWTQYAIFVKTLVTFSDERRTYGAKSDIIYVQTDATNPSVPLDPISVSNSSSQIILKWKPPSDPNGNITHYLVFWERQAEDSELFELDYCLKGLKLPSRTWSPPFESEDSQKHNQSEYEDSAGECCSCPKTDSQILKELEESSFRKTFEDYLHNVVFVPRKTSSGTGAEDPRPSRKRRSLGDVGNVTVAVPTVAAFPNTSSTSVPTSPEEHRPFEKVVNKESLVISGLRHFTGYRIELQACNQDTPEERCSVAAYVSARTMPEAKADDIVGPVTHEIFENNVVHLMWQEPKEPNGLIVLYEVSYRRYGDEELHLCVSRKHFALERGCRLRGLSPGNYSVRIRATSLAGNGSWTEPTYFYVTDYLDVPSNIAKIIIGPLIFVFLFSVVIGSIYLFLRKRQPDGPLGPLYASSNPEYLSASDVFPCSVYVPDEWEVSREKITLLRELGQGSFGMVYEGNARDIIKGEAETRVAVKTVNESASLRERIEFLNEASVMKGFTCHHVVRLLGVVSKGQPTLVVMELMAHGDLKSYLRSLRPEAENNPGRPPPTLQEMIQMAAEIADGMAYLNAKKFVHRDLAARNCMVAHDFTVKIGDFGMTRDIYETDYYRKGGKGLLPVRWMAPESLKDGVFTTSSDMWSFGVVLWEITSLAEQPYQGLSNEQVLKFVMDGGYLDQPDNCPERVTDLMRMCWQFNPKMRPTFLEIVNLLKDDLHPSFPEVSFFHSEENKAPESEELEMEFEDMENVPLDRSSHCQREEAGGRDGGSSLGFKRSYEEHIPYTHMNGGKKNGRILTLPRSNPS
T2 sequence (P08069 31-1367): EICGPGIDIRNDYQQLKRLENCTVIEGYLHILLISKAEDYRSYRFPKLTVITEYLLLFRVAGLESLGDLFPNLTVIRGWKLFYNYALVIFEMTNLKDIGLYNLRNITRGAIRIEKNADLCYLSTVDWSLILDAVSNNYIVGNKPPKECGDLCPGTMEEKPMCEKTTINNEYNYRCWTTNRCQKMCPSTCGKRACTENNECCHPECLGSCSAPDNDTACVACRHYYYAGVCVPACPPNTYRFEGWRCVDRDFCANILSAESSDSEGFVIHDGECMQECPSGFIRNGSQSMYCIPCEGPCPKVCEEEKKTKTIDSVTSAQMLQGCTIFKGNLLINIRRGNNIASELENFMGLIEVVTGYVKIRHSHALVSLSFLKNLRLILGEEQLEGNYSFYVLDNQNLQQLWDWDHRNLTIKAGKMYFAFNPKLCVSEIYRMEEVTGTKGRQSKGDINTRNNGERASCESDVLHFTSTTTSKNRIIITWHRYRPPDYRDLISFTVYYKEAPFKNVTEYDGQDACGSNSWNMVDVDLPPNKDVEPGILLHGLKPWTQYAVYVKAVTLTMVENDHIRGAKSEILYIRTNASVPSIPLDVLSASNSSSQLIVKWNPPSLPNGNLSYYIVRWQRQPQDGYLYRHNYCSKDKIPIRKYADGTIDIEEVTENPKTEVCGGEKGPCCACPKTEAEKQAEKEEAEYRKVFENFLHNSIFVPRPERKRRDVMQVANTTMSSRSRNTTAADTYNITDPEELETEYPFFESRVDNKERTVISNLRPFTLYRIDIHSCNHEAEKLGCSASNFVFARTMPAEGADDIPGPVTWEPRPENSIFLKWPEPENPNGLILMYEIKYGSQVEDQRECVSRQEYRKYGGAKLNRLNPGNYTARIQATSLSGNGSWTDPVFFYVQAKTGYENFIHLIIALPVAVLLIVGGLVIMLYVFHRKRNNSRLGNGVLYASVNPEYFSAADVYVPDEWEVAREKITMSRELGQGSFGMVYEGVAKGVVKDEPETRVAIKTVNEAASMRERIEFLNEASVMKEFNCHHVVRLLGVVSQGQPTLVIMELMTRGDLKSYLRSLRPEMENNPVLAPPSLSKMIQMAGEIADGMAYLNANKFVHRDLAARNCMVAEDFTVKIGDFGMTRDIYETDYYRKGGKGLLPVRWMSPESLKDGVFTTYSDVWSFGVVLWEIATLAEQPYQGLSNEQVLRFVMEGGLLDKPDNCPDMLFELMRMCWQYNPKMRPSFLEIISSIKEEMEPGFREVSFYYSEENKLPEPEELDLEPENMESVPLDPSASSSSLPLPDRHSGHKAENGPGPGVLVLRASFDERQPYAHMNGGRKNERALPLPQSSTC

Compound: COc1ccc2c(c1)CCN(C(C)=O)C2c1cc(OC)c(OC)c(OC)c1 (racemic) [Example 3, 1-(3,4,5-trimethoxyphenyl)-2-acetyl-6-methoxy-1,2,3,4-tetrahydroisoquinoline]
percentage of Annexin-V positive cells (Jurkat cells; 6 hours): 8%
percentage of Annexin-V positive cells (Jurkat cells; 24 hours): 89%
induction of apoptosis (Jurkat cells; tested cell lines (Jurkat and SK-MEL 28), slower kinetics than SuperFasL): induces apoptosis
percentage of Annexin-V positive cells (SK-MEL 28 cells; SK-Mel-28, 6 hours): 8%
percentage of Annexin-V positive cells (SK-MEL 28 cells; SK-Mel-28, 24 hours): 16%
percentage of Annexin-V positive cells (SK-MEL 28 cells; SK-Mel-28, 48 hours): 70%
mitotic index SK-Mel-28 (SK-Mel-28 cells; 300 ng/ml): 5

difference in phosphorylation of the insulin receptor versus untreated cells (insulin receptor (IR)): No difference
Compound: COc1ccc2c(c1)CCN(C#N)C2c1cc(OC)c(OC)c(OC)c1 (single isomer, unassigned; (-)) [Example 33, (−)-1-(3,4,5-trimethoxyphenyl)-2-cyano-6-methoxy-1,2,3,4-tetrahydroisoquinoline]

% phosphorylation of IGF-1R in SK-MEL-28 cells (IGF-1R): 10%
Compound: COc1ccc2c(c1)CCCN(C)C2c1cc(OC)c(OC)c(OC)c1.Cl (stereo not shown) [Example 31, 1-(3,4,5-trimethoxyphenyl)-2-methyl-7-methoxy-2,3,4,5-tetrahydro-1H-2-bezazepine hydrochloride]

Compound: COC(=O)Nc1nc2ccc(C(=O)c3cccs3)cc2[nH]1 [Nocodazole, reference compound]
mitotic index SK-Mel-28 (SK-Mel-28 cells; 10 μM): 2.9
